According to ChEMBL document CHEMBL1127156, “m-Alkyl, ,,-trifluoroacetophenones: A new class of potent transition state analog inhibitors of acetylcholinesterase” (Bioorg Med Chem Lett, 1993):
pKi: −log10 of the molar value.

molecular target: Acetylcholinesterase (Torpedo californica, UniProt P04058); test: Tested for the ability to inhibit Acetylcholinesterase (AChE) from Torpedo californica; design: species or system Tetronarce californica
Sequence (P04058 whole entry): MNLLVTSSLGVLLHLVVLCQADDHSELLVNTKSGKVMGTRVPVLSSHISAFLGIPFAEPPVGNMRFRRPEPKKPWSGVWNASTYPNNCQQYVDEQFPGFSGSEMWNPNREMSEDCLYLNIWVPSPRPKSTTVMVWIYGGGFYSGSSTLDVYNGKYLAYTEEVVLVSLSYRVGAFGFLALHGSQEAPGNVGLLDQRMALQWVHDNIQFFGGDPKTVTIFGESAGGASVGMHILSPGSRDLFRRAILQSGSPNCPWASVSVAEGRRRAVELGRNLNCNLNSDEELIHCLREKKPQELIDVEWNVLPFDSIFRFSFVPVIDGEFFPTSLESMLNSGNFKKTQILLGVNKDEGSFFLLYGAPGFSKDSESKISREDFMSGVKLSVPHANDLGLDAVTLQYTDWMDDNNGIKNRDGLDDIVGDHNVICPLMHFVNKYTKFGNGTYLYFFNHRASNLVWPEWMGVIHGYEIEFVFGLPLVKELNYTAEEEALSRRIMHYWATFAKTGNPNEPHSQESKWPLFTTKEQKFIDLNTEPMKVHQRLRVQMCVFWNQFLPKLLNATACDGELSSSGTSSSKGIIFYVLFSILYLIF

Compound	pKi
Cc1cccc(C(=O)C(F)(F)F)c1	8.62
CCc1cccc(C(=O)C(F)(F)F)c1	9.41
CC(C)c1cccc(C(=O)C(F)(F)F)c1	11.07
O=C(c1cccc(C(F)(F)F)c1)C(F)(F)F	9.41
CC(C)(C)c1cccc(C(=O)C(F)(F)F)c1	11.43
